Series [1] has as its target T1, Calcitonin gene-related peptide type 1 receptor (Homo sapiens, UniProt O60894+Q16602). Briefly: Antagonist activity at human recombinant CL receptor /RAMP1 assessed as inhibition of cAMP accumulation by cell based assay. It counts as functional.
A short description of series [2]: Clearance in rat at 2.0 mg/kg, iv and 10 mg/kg, po. Particulars: in vivo. It counts as ADME, organism-based.
Series [3] can be described thus: Half life in rat at 2.0 mg/kg, iv and 10 mg/kg, po. It counts as ADME, organism-based. Particulars: in vivo.
The nature of series [4]: Cmax in rat at 2.0 mg/kg, iv and 10 mg/kg, po. It counts as ADME, organism-based. Particulars: in vivo.
Series [5] concerns the target T1, Calcitonin gene-related peptide type 1 receptor. Briefly: Displacement of [125I]CGRP from human recombinant CL receptor /RAMP1. On the technique in general: Loss of bound radioactivity is the signal in a displacement assay; it reports binding, not function.
Series [6] is described as follows: Bioavailability in rat at 10 mg/kg, po. It counts as ADME, organism-based. As to conditions: in vivo.
The nature of series [7]: Clearance in dog at 0.5 mg/kg, iv and 1.0 mg/kg, po. It counts as ADME, organism-based, Canis lupus familiaris. Particulars: in vivo.
A short description of series [8]: Cmax in dog at 0.5 mg/kg, iv and 1.0 mg/kg, po. It counts as ADME, organism-based, Canis lupus familiaris. As to conditions: in vivo.
The target in series [9] is T1, Calcitonin gene-related peptide type 1 receptor. Briefly: Antagonist activity at human recombinant CL receptor /RAMP1 assessed as inhibition of cAMP accumulation in presence of 50% human serum by cell based assay. It counts as functional. (Cyclic AMP is a second messenger, typically raised through Gs and lowered through Gi signalling.)
A short description of series [10]: Bioavailability in dog at 1.0 mg/kg, po. It counts as ADME, organism-based, Canis lupus familiaris. Particulars: in vivo.
Series [11] is described as follows: Half life in dog at 0.5 mg/kg, iv and 1.0 mg/kg, po. As to conditions: in vivo. It counts as ADME, organism-based, Canis lupus familiaris.

T1 sequence (Q16602 whole entry, one chain of several): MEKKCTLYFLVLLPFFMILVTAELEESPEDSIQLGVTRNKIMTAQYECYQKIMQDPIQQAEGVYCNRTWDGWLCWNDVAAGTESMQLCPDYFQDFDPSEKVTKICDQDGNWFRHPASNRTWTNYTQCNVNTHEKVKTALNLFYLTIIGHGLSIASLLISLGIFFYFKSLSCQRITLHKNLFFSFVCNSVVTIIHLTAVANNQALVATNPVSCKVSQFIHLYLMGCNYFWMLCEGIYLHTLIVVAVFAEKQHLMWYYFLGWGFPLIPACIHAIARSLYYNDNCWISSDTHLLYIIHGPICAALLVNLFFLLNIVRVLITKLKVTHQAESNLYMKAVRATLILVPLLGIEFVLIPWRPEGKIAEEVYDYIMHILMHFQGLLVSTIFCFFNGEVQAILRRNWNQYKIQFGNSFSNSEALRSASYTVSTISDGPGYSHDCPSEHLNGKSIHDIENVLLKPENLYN

For the molecule `COCCn1cc(-c2ccccc2)cc(NC(=O)N2CCC(n3c(=O)[nH]c4ncccc43)CC2)c1=O`, in series [1], the half-maximal inhibitory concentration (IC50) amounted to 665 nM. Besides, the clearance in [2] was found to be 25.3 mL/min/kg. For the same molecule, the half-life in [3] is 0.5 h. Moreover, the peak concentration (Cmax) in series [4] is 1.3 µM. Further, the Ki in [5] turned out to be 228 nM. For the same molecule, the bioavailability in series [6] is 37%.

As to `O=C(Nc1cc(-c2cccc(F)c2F)cn(CC(F)(F)F)c1=O)N1CCC(n2c(=O)[nH]c3ncccc32)CC1`, the half-maximal inhibitory concentration (IC50) in series [1] stood at 18 nM; in series [9] it was 811 nM. The clearance in series [2] stood at 0.8 mL/min/kg; in series [7], 0.2 mL/min/kg. Further, the half-life in series [3] was 6.3 h; in series [11], 3.3 h. The maximum concentration (Cmax) in series [4] and in series [8] was 9.4 µM in each case. In series [5], the inhibition constant (Ki) stood at 17 nM. Besides, the bioavailability worked out at 34% in series [6] and 65% in series [10].

Take `Cn1cc(-c2ccc(C(=O)O)cc2)cc(NC(=O)N2CCC(n3c(=O)[nH]c4ncccc43)CC2)c1=O`: in series [5], the Ki stood at 9000 nM.

For `O=C(Nc1cc(-c2cccc(F)c2)cn(CC(F)(F)F)c1=O)N1CCC(n2c(=O)[nH]c3ncccc32)CC1`, the IC50 in [1] was 119 nM. Further, in series [5], the inhibition constant (Ki) stood at 42 nM.

Consider `O=C(Nc1cc(-c2ccn[nH]2)cn(CC(F)(F)F)c1=O)N1CCC(n2c(=O)[nH]c3ncccc32)CC1`, for which the IC50 amounted to 550 nM in [1] and 1420 nM in series [9]. Also, the inhibitory constant (Ki) in [5] worked out at 205 nM.

With `O=C(Nc1cc(-c2ccccc2)cn(CC2CC2)c1=O)N1CCC(n2c(=O)[nH]c3ncccc32)CC1`, the IC50 in series [1] amounted to 302 nM. Further, in series [5], the Ki turned out to be 170 nM.

In the case of `O=C(Nc1cc(-c2cccnc2)cn(CC(F)(F)F)c1=O)N1CCC(n2c(=O)[nH]c3ncccc32)CC1`, the half-inhibitory concentration (IC50) in [1] stood at 651 nM. In addition, the clearance in [7] worked out at 0.3 mL/min/kg. Also, the inhibitory constant (Ki) in series [5] stood at 635 nM. Besides, the highest level in series [8] (Cmax) was 7.4 µM. Besides, the bioavailability in series [10] is 56%. The same molecule had a half-life in series [11] of 5.4 h.

Regarding `Cn1cc(-c2ccccc2)cc(NC(=O)N2CCC(n3c(=O)[nH]c4ncccc43)CC2)c1=O`, the values for the IC50 in [1] and in [9] were 495 nM and 10900 nM, respectively. For the same molecule, the clearance in series [2] came to 1.3 mL/min/kg. The molecule also gave a half-life in [3] of 3 h. Besides, the highest level in [4] (Cmax) was 20.3 µM. In [5], the inhibition constant (Ki) is 498 nM. Further, in [6], the bioavailability stood at 40%.

As to `O=C(Nc1cc(-c2ccccc2)cn(CC2CC2)c1=O)N1CCC(n2cc(-c3ccccc3)[nH]c2=O)CC1`, in series [1], the IC50 is 360 nM. For the same molecule, the Ki in series [5] was determined as 80 nM.

Regarding `Cn1cc(-c2ncccn2)cc(NC(=O)N2CCC(n3c(=O)[nH]c4ncccc43)CC2)c1=O`, the Ki in series [5] came out at 1900 nM.

Regarding `COCCn1cc(-c2ccn[nH]2)cc(NC(=O)N2CCC(n3c(=O)[nH]c4ncccc43)CC2)c1=O`, the results for the half-maximal inhibitory concentration (IC50) in series [1] and in series [9] were 307 nM and 394 nM, respectively. In addition, in series [5], the inhibitory constant (Ki) amounted to 140 nM.

Turning to `O=C(Nc1cc(-c2ccsc2)cn(CC(F)(F)F)c1=O)N1CCC(n2c(=O)[nH]c3ncccc32)CC1`, the concentration for half-maximal inhibition (IC50) in [1] was 345 nM. Moreover, the clearance in series [2] worked out at 9.6 mL/min/kg. The molecule further gave a half-life in series [3] of 0.9 h. Further, in series [4], the Cmax is 5.1 µM. Besides, in series [5], the inhibition constant (Ki) worked out at 105 nM. For the same molecule, in series [6], the bioavailability was found to be 44%.

For `O=C(Nc1cc(-c2ccc(O)cc2)cn(CC(F)(F)F)c1=O)N1CCC(n2c(=O)[nH]c3ncccc32)CC1`, the figures for the IC50 in series [1] and in [9] were 282 nM and 971 nM, respectively. Further, the inhibitory constant (Ki) in series [5] was 96 nM.

`Cn1cc(-c2ccc(S(C)(=O)=O)cc2)cc(NC(=O)N2CCC(n3c(=O)[nH]c4ncccc43)CC2)c1=O`: the Ki in series [5] came to 1750 nM.

Turning to `O=C(Nc1cc(-c2ccccc2F)cn(CC(F)(F)F)c1=O)N1CCC(n2c(=O)[nH]c3ncccc32)CC1`, the IC50 in series [1] was found to be 186 nM. The Ki in series [5] was found to be 54 nM.

With `COCCn1cc(-c2cccc(F)c2F)cc(NC(=O)N2CCC(n3c(=O)[nH]c4ncccc43)CC2)c1=O`, the IC50 in series [1] stood at 164 nM; in series [9], 1000 nM. In series [5], the Ki came to 41 nM.

On to `Cn1cc(-c2cccc(F)c2F)cc(NC(=O)N2CCC(n3c(=O)[nH]c4ncccc43)CC2)c1=O`, for which the IC50 in [1] was determined as 567 nM. Also, the Ki in series [5] turned out to be 166 nM.

Regarding `Cn1cc(-c2cccc(F)c2)cc(NC(=O)N2CCC(n3c(=O)[nH]c4ncccc43)CC2)c1=O`, the concentration for half-maximal inhibition (IC50) in [1] worked out at 337 nM. Also, the inhibition constant Ki in [5] was found to be 155 nM.

Regarding `COCCn1cc(-c2ccc(O)cc2)cc(NC(=O)N2CCC(n3c(=O)[nH]c4ncccc43)CC2)c1=O`, the results for the 50% inhibitory concentration (IC50) in series [1] and in series [9] were 170 nM and 280 nM, respectively. The inhibition constant (Ki) in [5] amounted to 74 nM.

In the case of `Cn1cc(-c2ccccc2O)cc(NC(=O)N2CCC(n3c(=O)[nH]c4ncccc43)CC2)c1=O`, the IC50 in series [1] was 827 nM. Moreover, the inhibitory constant (Ki) in series [5] is 220 nM.

Turning to `COCCn1cc(-c2ccsc2)cc(NC(=O)N2CCC(n3c(=O)[nH]c4ncccc43)CC2)c1=O`, the IC50 in series [1] amounted to 540 nM. In series [2], this molecule came in with a clearance of 23.5 mL/min/kg. For the same molecule, in series [3], the half-life is 2.8 h. In series [4], this molecule returned a Cmax of 0.08 µM. The Ki in [5] is 390 nM. In addition, the bioavailability in series [6] was 1%.

Regarding `Cn1cc(-c2cccc(O)c2)cc(NC(=O)N2CCC(n3c(=O)[nH]c4ncccc43)CC2)c1=O`, the IC50 was determined as 142 nM in [1] and 715 nM in [9]. Further, in series [5], the Ki stood at 42 nM.

As for `Cn1cc(-c2cccnc2)cc(NC(=O)N2CCC(n3c(=O)[nH]c4ncccc43)CC2)c1=O`, in series [1], the IC50 is 1070 nM. Further, the Ki in series [5] was 270 nM.

In the case of `Cn1cc(C2C=NC=N2)cc(NC(=O)N2CCC(n3c(=O)[nH]c4ncccc43)CC2)c1=O` (stereo not given), the inhibition constant (Ki) in [5] was determined as 2050 nM.

`O=C(Nc1ccc(-c2ccccc2)n(CC2CC2)c1=O)N1CCC(n2cc(-c3ccccc3)[nH]c2=O)CC1`: the Ki in series [5] is 3400 nM.

`O=C(Nc1cc(-c2ccccc2)cn(CC(F)(F)F)c1=O)N1CCC(n2c(=O)[nH]c3ncccc32)CC1`: the IC50 in series [1] was 209 nM. In addition, the results for the clearance in series [2] and in [7] were 2.3 mL/min/kg and 0.2 mL/min/kg, respectively. In addition, the results for the half-life in series [3] and in [11] were 2.5 h and 3.7 h, respectively. For the same molecule, the Cmax in series [4] turned out to be 5.3 µM; in [8] it was 10.3 µM. Moreover, the Ki in series [5] was 95 nM. Besides, the bioavailability in series [6] turned out to be 31%; in [10], 58%.

Regarding `Cn1cc(-c2ccsc2)cc(NC(=O)N2CCC(n3c(=O)[nH]c4ncccc43)CC2)c1=O`, in series [1], the IC50 turned out to be 330 nM. For the same molecule, in series [2], the clearance came out at 8.9 mL/min/kg. This molecule also had a half-life in [3] of 1 h. This molecule also yielded a Cmax in series [4] of 7.4 µM. For the same molecule, the Ki in series [5] stood at 75 nM. Also, the bioavailability in [6] stood at 47%.

On to `Cn1cc(-c2ccc(O)cc2)cc(NC(=O)N2CCC(n3c(=O)[nH]c4ncccc43)CC2)c1=O`, for which the 50% inhibitory concentration (IC50) in [1] is 88 nM. Further, the figures for the clearance in [2] and in series [7] were 16.1 mL/min/kg and 0.6 mL/min/kg, respectively. The figures for the half-life in series [3] and in series [11] were 1.1 h and 2.9 h, respectively. The peak concentration (Cmax) worked out at 0.1 µM in series [4] and 0.6 µM in [8]. Also, the inhibitory constant (Ki) in series [5] amounted to 43 nM. Besides, the bioavailability in series [6] is 2%; in [10], 3%.

`Cn1cc(-c2ccccc2F)cc(NC(=O)N2CCC(n3c(=O)[nH]c4ncccc43)CC2)c1=O`: the half-inhibitory concentration (IC50) in series [1] stood at 477 nM. Further, the inhibitory constant (Ki) in series [5] stood at 213 nM.

`COCCn1cc(-c2cccnc2)cc(NC(=O)N2CCC(n3c(=O)[nH]c4ncccc43)CC2)c1=O`: the IC50 in series [1] was found to be 1190 nM. Besides, in [5], the Ki stood at 695 nM.

Consider `Cn1cc(C2C=CN=N2)cc(NC(=O)N2CCC(n3c(=O)[nH]c4ncccc43)CC2)c1=O` (stereo not given), for which the values for the IC50 in series [1] and in series [9] were 184 nM and 872 nM, respectively. This molecule displayed a clearance in series [7] of 2.8 mL/min/kg. In addition, the Ki in [5] stood at 71 nM. Besides, in [8], the highest level (Cmax) was 0.3 µM. This molecule had a bioavailability in [10] of 6%. Also, the half-life in series [11] is 1.2 h.

Regarding `COc1ccc(-c2cc(NC(=O)N3CCC(n4c(=O)[nH]c5ncccc54)CC3)c(=O)n(C)c2)cc1`, the IC50 in [1] amounted to 1530 nM. Moreover, in series [5], the Ki amounted to 495 nM.

One may read the IC50 as the concentration that gives 50% inhibition. What is called half-life is the time needed for the level to fall by half in the phase considered. A lower half-life goes with fast loss. The term Cmax denotes the highest concentration seen after dosing. A word on the Ki: it is the equilibrium dissociation constant of an inhibitor or competing ligand from its target. By bioavailability is commonly meant dose-corrected exposure relative to a reference, in per cent. Read a high bioavailability as much systemic uptake.

The values are drawn from ChEMBL document CHEMBL1143152, “Calcitonin gene-related peptide (CGRP) receptor antagonists: investigations of a pyridinone template” (Bioorg Med Chem Lett, 2008).
